Measurements published in US8883841B2, “Oncogenic ras-specific cytotoxic compound and methods of use thereof” (The Board of Regents of the University of Texas System, priority 2005, dated 2014).
Read-outs that look alike come from different tables or passages of the source.

Assays:
[1] = tested on: H460 cells; conditions: for IC50 in H460 cells: Table 1, value is the negative log10 of mol/L
[2] = tested on: T29Kt1 cells; conditions: Table 1, value is the negative log10 of mol/L
[3] = tested on: T29 cells; conditions: Table 1; value is the negative log10 of mol/L
[4] = tested on: T29Kt1 cells; experiment: cells; conditions: Homo sapiens, T29Kt1, read-out: IC50 in T29k cells, Table 1
[5] = tested on: H460 cells; experiment: cells; conditions: Homo sapiens
[6] = tested on: Heb46; experiment: Cell viability, Heb46 kidney cells; assay type: cell-based
[7] = tested on: DLD1; experiment: Cell viability, DLD1 colon cancer cells; assay type: cell-based, human; conditions: for IC50: Homo sapiens
[8] = tested on: H226B cells; experiment: Cell viability, H226B lung cancer cells; assay type: cell-based, human; conditions: for IC50: Homo sapiens
[9] = tested on: Capanc-1; experiment: Cell viability, Capanc-1 pancreatic cancer cells; assay type: cell-based, human; conditions: for IC50: Homo sapiens, Pancreatic cancer cell
[10] = tested on: A549CK8; experiment: Cell viability, A549CK8 lung cancer cells; assay type: cell-based, human; conditions: for IC50: Homo sapiens, read-out: IC50 (−LogM) (converted)
[11] = tested on: Hct116; experiment: Cell viability, Hct116 colon cancer cells; assay type: cell-based, human; conditions: for IC50: Homo sapiens
[12] = tested on: Heb44; experiment: Cell viability, Heb44 kidney cells; assay type: cell-based
[13] = tested on: AsPC-1; experiment: Cell viability, AsPC-1 pancreatic cancer cells; assay type: cell-based, human; conditions: for IC50: Homo sapiens
[14] = tested on: miapac; experiment: Cell viability, miapac pancreatic cancer cells; assay type: cell-based, human; conditions: for IC50: Homo sapiens, Pancreatic cancer cell, read-out: IC50 (−LogM) (converted)
[15] = tested on: A549 cells; experiment: Cell viability, A549 lung cancer cells; assay type: cell-based, human; conditions: for IC50: Homo sapiens, A549, read-out: IC50 (−LogM), A549, Lung (converted)
[16] = tested on: HKE3; experiment: Cell viability, HKE3 colon cancer cells; assay type: cell-based, human; conditions: for IC50: Homo sapiens
[17] = tested on: CT116P53; experiment: Cell viability, CT116P53 colon cancer cells; assay type: cell-based, human; conditions: for IC50: Homo sapiens, read-out: IC50 (−LogM) (converted)
[18] = tested on: Sw620; experiment: Cell viability, Sw620 colon cancer cells; assay type: cell-based, human; conditions: Sw620, Colon
[19] = tested on: H322 cells; experiment: Cell viability, H322 lung cancer cells; assay type: cell-based, human; conditions: for IC50: Homo sapiens
[20] = tested on: H1299 cells; experiment: Cell viability, H1299 lung cancer cells; assay type: cell-based, human; conditions: for IC50: Homo sapiens, NCI-H1299, read-out: IC50 (−LogM), h1299, Lung (converted)
[21] = NCI-H460, read-out: IC50 (−LogM), H460, Lung (converted)
[22] = NCI-H460, read-out: IC50 in H460 cells, Table 1
[23] = DLD-1, read-out: IC50 (−LogM) (converted)
[24] = read-out: IC50 (−LogM), H226B, Lung, first H226B line (converted)
[25] = read-out: IC50 (−LogM), H226B, Lung, second H226B line (converted)
[26] = read-out: IC50 (−LogM), capanc1, Pancrease (converted)
[27] = HCT-116, read-out: IC50 (−LogM), Hct116, Colon (converted)
[28] = ASPC1, read-out: IC50 (−LogM), ASPC1, Pancrease (converted)
[29] = read-out: IC50 (−LogM), HKE3, Colon, first HKE3 line (converted)
[30] = read-out: IC50 (−LogM), HKE3, Colon, second HKE3 line (converted)

“4H-1,2,4-Triazol-4-amine, N-[[1-[(2,4-dichlorophenyl)methyl]-1H-indol-3-yl]methyle> [Oncrasin K002]” was tested, and the “IC50 in H460 cells” value [1] was 4.8.
For “7H-Pyrrolo[2,3-d]pyrimidin-4-amine, N-[3-(1H-imidazol-1-yl)propyl]-5,6-diphenyl-7- [Oncrasin K017]”, the “IC50 in T29k cells” value [2] was 5 and the “IC50 in T29 cells” value [3] was 4.8.
With `O=Cc1cn(Cc2ccccc2)c2ccccc12` [Oncrasin K014, 1-Benzylindole-3-carboxaldehyde] the IC50 [4] was 5.01 µM, the IC50 [5, 21] was 0.0251 µM and the IC50 [5, 22] was 0.0251 µM. It also gave an IC50 [6] of 3.16 µM, an IC50 [7, 23] of less than 31.6 µM and an IC50 [8, 24] of 2 µM. It also gave an IC50 [8, 25] of 31.6 µM, an IC50 [9, 26] of 31.6 µM and an IC50 [10] of 6.31 µM. For the same molecule, the IC50 [11, 27] was 7.94 µM, the IC50 [12] was 0.501 µM and the IC50 [13, 28] was 7.94 µM. For the same molecule, the IC50 [14] was less than 31.6 µM, the IC50 [15] was 31.6 µM and the IC50 [16, 29] was 1 µM. The IC50 [16, 30] was 5.01 µM and the IC50 [17] was less than 31.6 µM.
`NC(=S)NN=Cc1cn(Cc2ccccc2)c2ccccc12` [Oncrasin K031, Hydrazinecarbothioamide, 2-[[1-(phenylmethyl)-1H-indol-3-yl]methylene]-(9CI)] was tested, and the “IC50 in T29k cells” value [2] was 5.
With `O=S(=O)(Nc1nccs1)c1ccc(N=Cc2cn(Cc3ccccc3)c3ccccc23)cc1` [Oncrasin K042, Sulfanilamide, N4-[(1-benzylindol-3-yl)methylene]-N1-2-thiazolyl-(8CI)] the “IC50 (−LogM)” value ([1]; H460, Lung) was 8 −LogM, the “IC50 in H460 cells” value [1] was 8 and the “IC50 (−LogM)” value [6] was 5.4 −LogM. For the same molecule, the “IC50 in T29k cells” value [2] was 6, the “IC50 (−LogM)” value ([7]; DLD1, Colon) was >4.5 −LogM and the “IC50 (−LogM)” value [18] was >4.5 −LogM. The “IC50 (−LogM)” value ([8]; H226B, Lung, first H226B line) was 5.5 −LogM, the “IC50 (−LogM)” value ([8]; H226B, Lung, second H226B line) was 5.3 −LogM and the “IC50 (−LogM)” value ([9]; capanc1, Pancrease) was 5.5 −LogM. For the same molecule, the “IC50 (−LogM)” value ([10]; A549CK8, Lung) was 5.3 −LogM, the “IC50 (−LogM)” value ([11]; Hct116, Colon) was 5 −LogM and the “IC50 (−LogM)” value [12] was 6.7 −LogM. For the same molecule, the “IC50 (−LogM)” value ([13]; ASPC1, Pancrease) was 5 −LogM, the “IC50 (−LogM)” value ([14]; miapac, Pancrease) was >4.5 −LogM and the “IC50 (−LogM)” value ([15]; A549, Lung) was 5 −LogM. For the same molecule, the “IC50 (−LogM)” value ([16]; HKE3, Colon, first HKE3 line) was 6 −LogM, the “IC50 (−LogM)” value ([16]; HKE3, Colon, second HKE3 line) was 5 −LogM and the “IC50 (−LogM)” value ([19]; H322, Lung) was >4.5 −LogM. The “IC50 (−LogM)” value ([20]; h1299, Lung) was >4.5 −LogM and the “IC50 (−LogM)” value ([17]; CT116P53, Colon) was >4.5 −LogM.
`O=C1C(=Cc2ccccn2)c2ccccc2N1Cc1ccccc1` [Oncrasin K046, 2-Indolinone, 1-benzyl-3-(2-pyridylmethylene)-(8CI)] was tested, and the “IC50 in T29k cells” value [2] was 5.3 and the “IC50 in T29 cells” value [3] was 5.3.
In the case of `CC(=O)Oc1cn(Cc2ccccc2)c2ccccc12` [Oncrasin K047, Indoxyl, 1-benzyl-, acetate (6CI)], the “IC50 in H460 cells” value [1] is reported as 5.
In the case of `O=Cc1cn(Cc2ccc(Cl)cc2Cl)c2ccccc12` [Oncrasin K050, 1-(2,4-dichlorobenzyl)-1H-indole-3-carbaldehyde], the “IC50 in H460 cells” value ([1]; listed as K50) is reported as 6.3, the “IC50 in H460 cells” value [1] is reported as 7 and the “IC50 in T29k cells” value ([2]; listed as K50) is reported as 5. For the same molecule, the “IC50 in T29k cells” value [2] was 5.8.
`O=Cc1cn(Cc2ccccc2F)c2ccccc12` [Oncrasin K051, 1-(2-fluorobenzyl)-1H-indole-3-carbaldehyde] showed an IC50 [4] of 0.316 µM, an IC50 [5, 21] of 0.1 µM and an IC50 [5, 22] of 0.1 µM. The IC50 [6] was 10 µM, the IC50 [7, 23] was less than 31.6 µM and the IC50 [8, 24] was 0.794 µM. It also gave an IC50 [8, 25] of 10 µM, an IC50 [9, 26] of 31.6 µM and an IC50 [10] of 10 µM. The IC50 [11, 27] was 10 µM, the IC50 [12] was 0.316 µM and the IC50 [13, 28] was 7.94 µM. For the same molecule, the IC50 [14] was less than 31.6 µM, the IC50 [15] was 12.6 µM and the IC50 [16, 30] was 10 µM. The IC50 [20] was 7.94 µM and the IC50 [17] was less than 31.6 µM.
With `CC(=O)c1cn(Cc2cccc(Cl)c2)c2ccccc12` [Oncrasin K058] the IC50 [4] was 31.6 µM.
`O=Cc1cn(Cc2cccc(C(F)(F)F)c2)c2ccccc12` [Oncrasin K62, 1-[3-(trifluoromethyl)benzyl]-1H-indole-3-carbaldehyde] gave an IC50 [4] of 5.62 µM, an IC50 [5, 21] of 0.0158 µM and an IC50 [5, 22] of 0.0138 µM. For the same molecule, the IC50 [6] was 10 µM, the IC50 [7, 23] was less than 31.6 µM and the IC50 [8, 24] was 3.16 µM. It also gave an IC50 [8, 25] of 10 µM, an IC50 [9, 26] of 31.6 µM and an IC50 [10] of 7.94 µM. It also gave an IC50 [11, 27] of 12.6 µM, an IC50 [12] of 0.1 µM and an IC50 [13, 28] of 15.8 µM. It also gave an IC50 [14] of less than 31.6 µM, an IC50 [15] of 10 µM and an IC50 [16, 29] of 3.16 µM. The IC50 [16, 30] was 5.01 µM, the IC50 ([19]; NCI-H322, read-out: IC50 (−LogM) (converted)) was 10 µM and the IC50 [20] was 10 µM. It also gave an IC50 [17] of less than 31.6 µM.
For `OCc1cn(Cc2cccc(C(F)(F)F)c2)c2ccccc12` [Oncrasin K63, {1-[3-(trifluoromethyl)benzyl]-1H-indol-3-yl}methanol], the IC50 [4] was 0.562 µM, the IC50 [5, 21] was 0.0398 µM and the IC50 [5, 22] was 0.0398 µM. It also gave an IC50 [6] of 10 µM, an IC50 ([7]; DLD-1, DLD1, Colon, read-out: IC50 (−LogM) (converted)) of less than 31.6 µM and an IC50 ([8]; H226B, Lung, first H226B line, read-out: IC50 (−LogM) (converted)) of 0.316 µM. For the same molecule, the IC50 ([8]; H226B, Lung, second H226B line, read-out: IC50 (−LogM) (converted)) was 1.58 µM, the IC50 ([9]; capanc1, Pancrease, read-out: IC50 (−LogM) (converted)) was 31.6 µM and the IC50 ([10]; A549CK8, Lung) was 10 µM. For the same molecule, the IC50 ([11]; HCT-116, Hct116, Colon, read-out: IC50 (−LogM) (converted)) was 7.94 µM, the IC50 [12] was 0.251 µM and the IC50 ([13]; ASPC1, Pancrease, read-out: IC50 (−LogM) (converted)) was 10 µM. It also gave an IC50 ([14]; miapac, Pancrease) of less than 31.6 µM, an IC50 ([16]; HKE3, Colon, first HKE3 line, read-out: IC50 (−LogM) (converted)) of 1 µM and an IC50 ([16]; HKE3, Colon, second HKE3 line, read-out: IC50 (−LogM) (converted)) of 1.58 µM. For the same molecule, the IC50 ([19]; NCI-H322, H322, Lung, read-out: IC50 (−LogM) (converted)) was 31.6 µM and the IC50 ([17]; CT116P53, Colon) was less than 31.6 µM.
With `O=Cc1cn(Cc2ccc(C(F)(F)F)cc2)c2ccccc12` [Oncrasin K64, 1H-Indole-3-carboxaldehyde, 1-[[4-(trifluoromethyl)phenyl]methyl]-(9CI)] the “IC50 in H460 cells” value [1] was 5.8.
Work on `OCN1CC(Cc2ccc(C(F)(F)F)cc2)c2ccccc21` (centres unmarked) [Oncrasin K65] yielded an IC50 [4] of 1.26 µM and an IC50 [5, 22] of 1.26 µM.
`Cc1ccc(Cn2cc(CO)c3ccccc32)cc1` [Oncrasin K67, 1H-Indole-3-methanol, 1-[(4-methylphenyl)methyl]-(9CI)] was tested, and the “IC50 in H460 cells” value [1] was 7, the “IC50 in T29k cells” value [2] was 6.1 and the “IC50 in T29 cells” value [3] was 4.8.
With `O=Cc1cn(Cc2ccc([N+](=O)[O-])cc2)c2ccccc12` [Oncrasin K70, 1-(4-nitrobenzyl)-1H-indole-3-carbaldehyde] the IC50 [4] was 10 µM and the IC50 [5, 22] was 0.501 µM.
For `OCc1cn(Cc2cccc(Cl)c2)c2ccccc12` [Oncrasin K72, 1H-Indole-3-methanol, 1-[(3-chlorophenyl)methyl]-(9CI)], the “IC50 in H460 cells” value [1] was 5.9 and the “IC50 in T29k cells” value [2] was 5.75.
`OCc1cn(Cc2ccc(Cl)cc2Cl)c2ccccc12` [Oncrasin K74, 1H-Indole-3-methanol, 1-[(2,4-dichlorophenyl)methyl]-] showed an IC50 [4] of 1.58 µM and an IC50 [5, 22] of 0.0794 µM.
`O=C(CCCCCCC(=O)N/N=C/c1cn(Cc2ccc(Cl)cc2)c2ccccc12)CCCCC1SCC2NC(=O)NC21` (centres unmarked) [Oncrasin K130] showed an IC50 [4] of 2.51 µM and an IC50 [5, 22] of 0.398 µM.
